Experiments:
Type in all cases: in vivo
Parameters in all cases: key: 5: completely killed; 4: seriously injured; 3: considerably injured; 2: somewhat injured; 1: slightly injured; 0: not injured (normally grown)
[1] = test system: tamagayatsuri (small-flowered umbrellaplant, Cyperus difformis); test: Experiment 7 flooded soil treatment: tamagayatsuri; details: evaluated 4 weeks after treatment
Description: (§1) Paddy soil (clay loam) was put into a pot so as to have a surface area of 1/15500 ares. Uniformly mixed seeds of several kinds of weeds, viz., nobie (barnyardgrass, Echinochloa spp.), broad-leaved weeds, hotarui (bulrush, Scirpus juncoides) and tamagayatsuri (small-flowered umbrellaplant, Cyperus difformis), were sown in the surface layer of the soil in each pot, and then paddy rice seedlings at the two- or three-leaved stage were transplanted into each pot to a depth of 2 cm, and water was fed into each pot so as to provide a 3 cm deep water layer on the soil surface. After 3 days, in other words at the initial stage of germination of nobie (barnyardgrass, Echinochloa spp.), a predetermined amount of a selected compound obtained in a manner analogous to Example 14 in the form of diluted aqueous solution was dropped into the water layer in each pot. After that, the pots were kept in a glass chamber to allow the paddy rice and the weeds to grow, and after the lapse of 4 weeks from the treatment with the selected compounds, the herbicidal effects and the degree of injury to the paddy rice were evaluated. The evaluation of the herbicidal effects was similarly conducted as that of Experiment 1.

[2] = test system: hotarui (bulrush, Scirpus juncoides); test: Experiment 7 flooded soil treatment: hotarui; details: evaluated 4 weeks after treatment
Description: as §1

[3] = test system: nobie (barnyardgrass, Echinochloa spp.); test: Experiment 7 flooded soil treatment: nobie; details: evaluated 4 weeks after treatment
Description: as §1

rice = test: Experiment 8 foliage treatment: rice; details: foliage spray of wettable powder suspension, evaluated 4 weeks after treatment
Method: (§2) Upon seedling stage (two- or three-leaved stage) of rice, cockspur (Panicum crus-galli), garden radish, aobiyu (slender amaranth, Amaranthus viridis) and mehishiba (henry crabgrass, Digitaria cliaris) which were grown on a cultivated soil put in pots of 1/15500 ares, a selected compound obtained in a manner analogous to Example 14, in suspended wettable powder, was sprayed to each plant. After that, the pots were kept in a glass chamber to allow each plant to grow, and after the lapse of 4 weeks from the treatment with the selected compounds the herbicidal effects were evaluated. The evaluation of the herbicidal effects was similarly conducted as to that of Experiment 1.

garden radish = test: Experiment 8 foliage treatment: garden radish; details: foliage spray of wettable powder suspension, evaluated 4 weeks after treatment
Method: as §2

[4] = test system: cockspur (Panicum crus-galli); test: Experiment 8 foliage treatment: cockspur; details: foliage spray of wettable powder suspension, evaluated 4 weeks after treatment
Method: as §2

[5] = test system: mehishiba (henry crabgrass, Digitaria cliaris); test: Experiment 8 foliage treatment: mehishiba; details: foliage spray of wettable powder suspension, evaluated 4 weeks after treatment
Method: as §2

broad-leaved weeds = test: Experiment 7 flooded soil treatment: broad-leaved weeds; details: evaluated 4 weeks after treatment
Description: as §1

[6] = test system: aobiyu (slender amaranth, Amaranthus viridis); test: Experiment 8 foliage treatment: aobiyu; details: foliage spray of wettable powder suspension, evaluated 4 weeks after treatment
Method: as §2

paddy rice = test: Experiment 7 flooded soil treatment: injury to paddy rice; details: evaluated 4 weeks after treatment
Description: as §1

Structure (SMILES)	Herbicidal Effect tamagayatsuri ([1]; 6.25 g/10a)	Herbicidal Effect tamagayatsuri ([1]; 12.5 g/10a)	Herbicidal Effect hotarui ([2]; 6.25 g/10a)	Herbicidal Effect hotarui ([2]; 12.5 g/10a)	Herbicidal Effect nobie ([3]; 6.25 g/10a)	Herbicidal Effect nobie ([3]; 12.5 g/10a)	Herbicidal Effect rice (rice; 40 g/10a)	Herbicidal Effect rice (rice; 80 g/10a)	Herbicidal Effect garden radish (garden radish; 40 g/10a)	Herbicidal Effect garden radish (garden radish; 80 g/10a)	Herbicidal Effect cockspur ([4]; 40 g/10a)	Herbicidal Effect cockspur ([4]; 80 g/10a)	Herbicidal Effect mehishiba ([5]; 40 g/10a)	Herbicidal Effect mehishiba ([5]; 80 g/10a)	Herbicidal Effect broad-leaved weed (broad-leaved weeds; 6.25 g/10a)	Herbicidal Effect broad-leaved weed (broad-leaved weeds; 12.5 g/10a)	Herbicidal Effect aobiyu ([6]; 40 g/10a)	Herbicidal Effect aobiyu ([6]; 80 g/10a)	Injury of Paddy (paddy rice; 6.25 g/10a)	Injury of Paddy (paddy rice; 12.5 g/10a)
C#CC(C)Oc1cc(N(C(=O)C2=C(C(=O)OC)CCCC2)C(=O)c2ccc(C)s2)c(F)cc1Cl (centres unmarked) [compound 96]	5	5	4	4	5	5	1	1	5	5	1	1	1	1	5	5	5	5	0	0.5
COC(=O)C1=C(C(=O)N(C(=O)c2cccs2)c2cc(OC3CCCC3)c(Cl)cc2F)CCCC1 [compound 98]	5	5	4	5	5	5	1	1	4	4	1	1	1	1	5	5	4	5	0.5	0.5
COC(=O)COc1cc(N(C(=O)C2=C(C(=O)OC)CCCC2)C(=O)c2cccs2)c(F)cc1Cl [compound 99]	4	5	4	4	5	5	1	1	4	4	1	1	1	1	5	5	4	5	0	0
C#CC(C)Oc1cc(N(C(=O)C2=C(C(=O)OCCC)CCCC2)C(=O)c2ccsc2)c(F)cc1Cl (centres unmarked) [compound 101]	5	5	4	4	5	5	1	1	5	5	1	1	1	1	5	5	5	5	0.5	1
